{"source": "patent US8828355B2", "about": "“Imaging reporters of transgene expression” (University of Utah Research Foundation, priority 2004, dated 2014)", "origin": "cited, not measured here", "key": {"Maltose binding protein": {"target": "Maltose binding protein (Escherichia coli, UniProt P0AEX9)", "details": "specificity"}, "[1]": {"target": "Mutant maltose binding protein, combination of both these mutations (Escherichia coli, UniProt P0AEX9, DEL198-201/M347A/Q351A/Y202G)", "details": "read-out: KD for maltotriose"}}}
{"compound": "OC[C@H]1O[C@@H](O[C@H]2[C@H](O)[C@@H](O)C(O)O[C@@H]2CO)[C@H](O)[C@@H](O)[C@H]1O", "note": "(stereo partly shown) [lactose]", "values": [{"measurement": "binding to maltose binding protein", "setting": "Maltose binding protein", "value": "not to bind"}]}
{"compound": "OC[C@H]1O[C@H](O[C@H]2[C@H](O)[C@@H](O)[C@H](O)O[C@@H]2CO)[C@H](O)[C@@H](O)[C@@H]1O", "note": "[maltose]", "values": [{"measurement": "clearance from the body", "setting": "infused", "value": "rapidly cleared from the body by the kidney"}, {"measurement": "distribution after infusion", "setting": "infused", "value": "distributed in the extracellular space"}, {"measurement": "safety of intravenous infusion", "setting": "intravenous infusion", "value": "safe"}]}
{"compound": "OC[C@H]1O[C@@](CO)(O[C@H]2O[C@H](CO)[C@@H](O)[C@H](O)[C@H]2O)[C@@H](O)[C@@H]1O", "note": "[sucrose]", "values": [{"measurement": "binding to maltose binding protein", "setting": "Maltose binding protein", "value": "not to bind"}]}
{"compound": "OC[C@H]1O[C@H](O[C@H]2O[C@H](CO)[C@@H](O)[C@H](O)[C@H]2O)[C@H](O)[C@@H](O)[C@@H]1O", "note": "[trehalose]", "values": [{"measurement": "binding to maltose binding protein", "setting": "Maltose binding protein", "value": "not to bind"}]}
{"compound": "maltotriose", "values": [{"measurement": "Kd", "setting": "[1]", "value": 6, "unit": "nM"}]}
